Results published in patent US9932339B2, “Helquats with heteroaromatic substituents, preparation thereof, and use thereof as G-quadruplex stabilizers” (USTAV ORGANICKE CHEMIE A BIOCHEMIE AV CR, V.V.I., priority 2014, dated 2018).

How the values were obtained:
[1] = tested on: G-quadruplex oligonucleotide Fmyc27T (NHE III1 promoter region of c-myc oncogene); experiment: FRET melting of G-quadruplex oligonucleotide Fmyc27T with ligands; assay type: binding; settings: for ΔTm (° C.) Fmyc27T/ds26 (° C.): helquat 1 μmol·l^−1, oligonucleotide 0.2 μmol·l^−1, 50-fold excess of double-stranded competitor ds26; for ΔTm (° C.) Fmyc27T: helquat 1 μmol·l^−1, oligonucleotide 0.2 μmol·l^−1, without competitor
Description: (§1) To determine the degree of in vitro interactions of helquats with G-quadruplex(es), the oligonucleotides containing the guanine-rich sequences of human telomere (F21T) and NHE III1 promoter region of c-myc oncogene (Fmyc27T) were used. Both oligonucleotides capable of forming an intramolecular G-quadruplex were end-labeled with suitable fluorophores so as to form donor-acceptor FRET pair (5′-FAM and 3′-TAMRA). If the oligonucleotide is folded into the structure of the G-quadruplex, donor is in close proximity of acceptor and radiationless energy transfer to the acceptor occurs. With increasing temperature of the reaction mixture G-quadruplex structure gradually denatures and thus the donor and acceptor (FAM-TAMRA) drift apart. This leads to an increase in fluorescence of donor (FAM) and a decrease in fluorescence of acceptor (TAMRA).
(§2) The result of measurement is the curve of dependence of the intensity of fluorescence of the donor on the temperature. If the G-quadruplex is stabilized by ligand, melting temperature will increase. Melting temperature of G-quadruplex corresponds to the temperature when 50% of the original amount of the folded G-quadruplex is denatured. The measurement outcome is the difference in the melting temperatures (ΔTm) of the G-quadruplex alone and the G-quadruplex stabilized by ligand. In case of Fmyc27T experiments were performed in cacodylate buffer (10 mmol·l^−1, pH=7.2) with KCl (5 mmol·l^−1) and LiCl (95 mmol·l^−1) oligonucleotide and in case of F21T oligonucleotide in cacodylate buffer (10 mmol·l^−1, pH=7.2) with KCl (25 mmol·l^−1) and LiCl (75 mmol·l^−1).
(§3) Both oligonucleotides were denatured for 5 minutes at 95° C. and subsequently allowed to cool to room temperature (3 hours) in the switched-off thermoblock. The final oligonucleotide concentration in the reaction mixture was 0.2 μmol·l^−1. Test helquats were present at concentrations of 1 μmol·l^−1. The total reaction volume was 30 μl. The melting temperature of the oligonucleotides alone (without the presence of helquats) under these conditions was 58.1±0.2° C. for F21T and 64.7±0.4° C. for Fmyc27T. For determining the selectivity of binding of helquats to G-quadruplex in comparison with the double-stranded DNA, 50-fold excess of double-stranded DNA ([…] unlabeled competitor ds26 forming a hairpin) is added to the reaction mixture. After the addition to the reaction mixture ds26 competes with labeled oligonucleotide (Fmyc27T or F21T) for ligand binding. […] Melting temperature of oligonucleotides alone in the presence of the competitor is 59.4±0.5° C. for F21T and 66.3° C.±0.6° C. for Fmyc27T.
(§4) Fluorescence of FAM donor was measured using real-time PCR apparatus Opticon 2 (excitation 470-505 nm and emission 523-543 nm) in temperature increments of 0.5° C. in the range 25 to 95° C. Evaluation of the sigmoid curves of fluorescence intensity dependent on the temperature were performed in GraphPad Prism 5 (GraphPad Software, Inc., USA). Using nonlinear five parametric regression the inflection point on the curve was calculated that corresponds to the melting temperature (Tm) of the G-quadruplex under the given conditions. The values were obtained from at least three independent measurements.

[2] = tested on: G-quadruplex oligonucleotide F21T (human telomere); experiment: FRET melting of G-quadruplex oligonucleotide F21T with ligands; assay type: binding; settings: for ΔTm (° C.) F21T/ds26: helquat 1 μmol·l^−1, oligonucleotide 0.2 μmol·l^−1, 50-fold excess of double-stranded competitor ds26; for ΔTm (° C.) F21T: helquat 1 μmol·l^−1, oligonucleotide 0.2 μmol·l^−1, without competitor
Description: as §1, §2, §3, §4

[3] = tested on: G-quadruplex in promoter region of the c-myc gene (NHE III1 segment); experiment: Dual luciferase analysis with plasmid pGL4.10-myc (luc2) in HGC-27 cells; assay type: cell-based, human; settings: for Quantification of expression relative to control (%): control = 100%; for inhibition at 50 µM / activity at 50 µM: Homo sapiens; for inhibition at 50 µM: HGC-27, text summary of tab. 5 (50 μmol·l^−1), read-out: inhibition of expression of firefly luciferase as compared to control; for activity at 50 µM: helquat 50 μmol · l^−1, HGC-27, firefly normalized to Renilla, 24 hours after transfection, read-out: luciferase expression relative to control (control = 100%)
Method in brief: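 HGC-27 cells were co-transfected 1:1 with pGL4.10-myc (luc2), whose firefly luciferase is driven by an 860 bp c-myc regulatory region containing the G-quadruplex-forming NHE III1 segment, and pRL-TK Renilla control, using X-tremeGENE HP DNA in OptiMEM. Compounds were added two hours post-transfection; luminescence read 24 hours after transfection was Renilla-normalized and expressed relative to control.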

SMILES | ΔTm (° C.) Fmyc27T/ds26 (° C.) [1] [°C] | ΔTm (° C.) Fmyc27T [1] [°C] | ΔTm (° C.) F21T/ds26 [2] [°C] | ΔTm (° C.) F21T [2] [°C] | Quantification of expression relative to control (%) ([3]; 10 μmol · l^−1) | Quantification of expression relative to control (%) ([3]; 50 μmol · l^−1) | Quantification of expression relative to control (%) ([3]; 150 μmol · l^−1) | inhibition at 50 µM [3] [%] | activity at 50 µM [3] [%]
Cc1c(C)c2c(c3c1CC[n+]1ccc(/C=C/c4cccc5c4oc4ccccc45)cc1-3)-c1c3ccccc3cc[n+]1CC2 (racemic) [MJA-C13-8, (rac)-(E)-13-(2-(dibenzo[b,d]furan-4-yl)vinyl)-6,7-dimethyl-4,5,8,9-tetrahydroisoquinolino[1,2-a]pyrido[1,2-k][2,9]phenanthroline-3,10-diium trifluoromethanesulfonate] | 4.9 | 11.0 | 1.4 | 7.4 | 79.3 ± 6.7 | 69.8 ± 6.0 | 57.9 ± 2.5 | > 40 | 56
C(=C\c1cccc2c1oc1ccccc12)/c1cc[n+]2c(c1)-c1c(ccc3c1-c1c4ccccc4cc[n+]1CC3)CC2.O=S(=O)([O-])C(F)(F)F.O=S(=O)([O-])C(F)(F)F [MSB-C13-8, (E)-13-(2-(dibenzo[b,d]furan-4-yl)vinyl)-4,5,8,9-tetrahydroisoquinolino[1,2-a]pyrido[1,2-k][2,9]phenanthroline-3,10-diium trifluoromethanesulfonate] | 7.7 | 12.6 | 3.4 | 9.0 |  |  |  |  | 
O=[N+]([O-])c1cccc2[nH]cc(/C=C/c3cc[n+]4c(c3)-c3c(ccc5c3-c3cccc[n+]3CC5)CC4)c12 (racemic) [LSA-C9-32, (rac)-(E)-2-(2-(4-nitro-1H-indol-3-yl)vinyl)-6,7,10,11-tetrahydrodipyrido[2,1-a:1′,2′-k][2,9]phenanthroline-5,12-diium trifluoromethanesulfonate] | 8.1 | 10.4 | 6.6 | 9.3 |  |  |  | > 20 | 74
C(=C\c1c(-c2ccccc2)[nH]c2ccccc12)/c1cc2ccccc2[n+]2c1-c1c(ccc3c1-c1cccc[n+]1CCC3)CCC2.O=S(=O)([O-])C(F)(F)F.O=S(=O)([O-])C(F)(F)F [MSC-C15-8, 19-((E)-2-(2-phenyl-1H-indol-3-yl)vinyl)-6,7,8,11,12,13-hexahydropyrido[1′″,2′″:1″,2″]azepino[4″,3″:5′,6′]benzo[1′,2′:3,4]azepino[1,2-a]quinoline-5,14-diium trifluoromethanesulfonate] |  |  |  |  |  |  |  | > 20 | 76
Brc1ccc2[nH]cc(/C=C/c3cc4ccccc4[n+]4c3-c3c(ccc5c3-c3cccc[n+]3CCC5)CCC4)c2c1.O=S(=O)([O-])C(F)(F)F.O=S(=O)([O-])C(F)(F)F [MSC-C9-30, 19-((E)-2-(5-bromo-1H-indol-3-yl)vinyl)-6,7,8,11,12,13-hexahydropyrido[1′″,2′″:1″,2″]azepino[4″,3″:5′,6′]benzo[1′,2′:3,4]azepino[1,2-a]quinoline-5,14-diium trifluoromethanesulfonate] |  |  |  |  |  |  |  | > 20 | 68
